From patent US12060408B2, “Screening assays, modulators and modulation of activation of Receptor for Advanced Glycation End-products (RAGE)” (Monash University, priority 2017, dated 2024)

What was measured:
[1] = tested on: RAGE ligand-dependent activation of RAGE; assay: S100A8/A9-induced NFκB activation (p65 gene expression) in CHO cells expressing RAGE constructs; type: cell-based, human
Method: Generation of Transgenic Chinese Hamster Ovary Cells
100 ng of AT1R-Rluc8 construct was transfected into CHO cells using Lipofectamine 2000 (Thermo). Stable transfectants were selected using G418. AT1R—CHO were then transiently transfected with RAGE constructs using Lipofectamine 2000 (Invitrogen) and incubated for 16 h. The Homo sapiens AGER transcript variant 1 coding sequence (NM_001136) was synthesised and cloned between the NheI and XbaI sites of pCIneo (Promega) to generate the vector pCIneo-RAGE. This plasmid was then used to generate a library of mutant AGER clones (NP_001127). Primers 1-RAGE-SP-5′ and mCherry-XhoI-NotI-3′ were used to amplify the coding sequence of mCherry from the vector pmCherry-C1. The resultant PCR product was then used as template for a second PCR using primers 2-RAGE-SP-5′ and mCherry-XhoI-NotI-3′. The PCR product generated was digested with NheI and NotI and inserted between the NheI and NotI sites of pCIneo to generate pCIneo-SP-mCherry. The sequence of the insert was confirmed by DNA sequencing (Micromon, Monash University). […]
Cellular Expression of Pro-Inflammatory Markers and Mediators by Quantitative Real-Time PCR
After 2 hours of exposure to Ang II (1 μM) or the RAGE ligand, S100A8/A9 (5 ng/ml) cells were placed in Trizol, mRNA extracted and cDNA synthesized. Changes in the gene expression of the NFκB subunit, p65 (RelA) or NFκB-activated target genes (e.g ICAM-1, VCAM-1) were estimated by quantitative real-time RT-PCR, performed using the TaqMan system based on real-time detection of accumulated fluorescence (ABI Prism 7700, Perkin-Elmer Inc, PE Biosystems, Foster City, CA, USA). Gene expression was normalized to 18S mRNA and reported as fold change compared to the level of expression in untreated control mice/cells, which were given an arbitrary value of 1.
To measure the induction of NFκB activity by 1 μM Ang II, or 5 ng/ml of the RAGE-ligand S100A8/A9 as a signalling control, AT1R—CHO cells were transfected with 0.4 μg of plasmids encoding NFκB-SEAP or β-galactosidase (β-Gal) using Lipofectamine 2000 (Invitrogen) as per manufacturer's instructions. After 24 hours, cells transfected with each plasmid combination were then treated with Ang II (1 μM) or left untreated and incubated for 4 hours before cell supernatants and cell lysates were collected. Cell supernatants were analysed using a chemiluminescent SEAP reporter gene assay (Roche Applied Science) to detect SEAP production after treatment. To control for transfection efficiency, cell lysates were assayed for β-Gal using a commercially available kit (Promega).

[2] = tested on: PMAEC; assay: Generation of superoxide and additional markers of oxidative stress (DCFH, Rac-1 G-LISA, oxidized glutathione) in PMAEC; type: cell-based, mouse
Method: Generation of Superoxide and Additional Markers of Oxidative Stress
To quantitate superoxide production induced by Ang II, a vessel chamber assay was used to measure total cytoplasmic and mitochondrial superoxide production in real time in PMAEC from AGER KO and C57Bl6 aortae. PMAEC were grown on collagen coated cover slips and mounted into a sealed glass chamber when they were 80% confluent. The chambers were perfused with Krebs buffer for an hour with fluorescent readings taken every 10 minutes to establish baseline readings. The cells were then perfused with 1 μM Ang II for 60 minutes and fluorescent readings were taken every 1 minute for a further 10 minutes. Fluorescence readings were expressed as change (Δ) in fluorescence arbitrary units from baseline. Levels of the activated NADPH oxidase subunit, Rac-1 activation was also measured in cell lysates after exposure to Ang II using a Rac-1 G-LISA activation assay (Cytoskeleton), as per manufacturers' instructions. Additional markers of oxidative stress were also assayed including levels of oxidized glutathione, (Cayman Chemical Company, US), performed as per manufacturer's instructions.

[3] = tested on: aortic endothelium; assay: Adherence of labelled leukocytes to aortae (dynamic flow assay); parameters: species or system mouse; details: ex vivo
Method: Adherence of Labelled Leukocytes to Aortae
After 1 week of a low sodium or normal sodium diet, apoE KO and AGER/apoE DKO animals were humanely killed and aortae were isolated, cleaned of fat and mounted in a vessel chamber primed with Krebs buffer and maintained at physiological pH by infusing carbogen gas (95% O2; 5% CO2) through the buffer at 37° C., as previously described. Whole blood labelled with DilC18 (1:1000) was then perfused through the aorta at 0.12 ml/min. As a positive control, vessels (n=6/group) were pre-treated with TNFα (4 ng/ml) for 4 hrs at 37° C. or Ang II (1 μM). Images and videos of vessel wall-cell interactions were acquired using a fluorescence microscope (Zeiss Discovery.V20), coupled to a digital camera ([…] ORCA-ER) and analysed with AxioVison software. Two to three frames were taken at each time point and the number of adherent cells per frame recorded.
Ex Vivo Studies in Isolated Aortae
Aortae were isolated from apoE KO and AGER/apoE DKO mice, divided and placed in Krebs buffer and maintained at physiological pH by infusing carbogen gas (95% O2; 5% CO2) through the buffer at 37° C. Vessels (n=6/group) were then treated with Ang II (1 μM) for 4 hours. […] Images and videos of vessel wall-cell interactions were observed using a fluorescence microscope (Zeiss Discovery.V20), coupled to a digital camera ([…] ORCA-ER) and analysed with AxioVison software.

Substance | inhibition of S100A8/A9-induced p65 expression ([1]; AT1R-CHO cells also expressing full length RAGE) | inhibition of RAGE ligand-dependent activation of wild-type RAGE (S100A8/A9) ([1]; summary statement, cell system not given) | ROS production and oxidative stress ([2]; PMAEC from AGER KO mice) | production of ROS and other markers of oxidative stress (activated rac-1, oxidised glutathione) ([2]; PMAEC from C57bl6 mice, 1 μM) | endothelial adhesiveness of primed leucocytes ([3]; aortae from AGER/apoE DKO mice, 1 μM) | number of adherent leukocytes ([3]; aortae from apoE KO mice, 1 μM vs untreated)
L362WQRRQRRGEERKAPENQEEEEERAELNQAEEPEAGESSTGGP404 (LWQRRQRRGEERKAPENQEEEEERAELNQAEEPEAGESSTGGP; listed as Homo sapiens) [S391A-RAGE362-404, S391A mutant RAGE cytosolic tail; non-functional substitute for RAGE] | inhibitory effect | inhibits |  |  |  | 
angiotensin II (DRVYIHPF) [Ang II, cognate ligand of AT1R] |  |  | does not lead to | rapid increase | prevents | increased number of adherent leukocytes
